Source: article PMC12188386, “Selective CBP/EP300 Bromodomain Inhibitors: Novel Epigenetic Tools to Counter TNF-α-Driven Inflammation” (JACS Au, 2025)
≈ marks a conversion by molar mass, not a printed value.

Legend:
kinetic solubility = assay type: physicochemical; settings: PBS buffer, aqueous buffer, kinetic from dmso stock, PBS pH 7.4, 37°C, ± st. dev. between technical replicates, read-out: Kin. Sol.
Experimental: Starting from an initial concentration of 100, 50 or 20 µM, a 2-fold serial dilution of the compound (10 mM stock in DMSO) was prepared in a mixture of ACN/Buffer (PBS, pH = 7.4) 2:8, with 1% DMSO. 350 µL was transferred to a 96-Well Plate (Greiner, UV-star) then UV absorption (240-400 nm, 10 nm steps) was measured. The absorption was blank-corrected and plotted against concentration. The wavelength (λ) providing the best fitting straight line […]
was used as the calibration curve. To obtain saturated solutions of the compounds of interest, in duplicates 4.4 µL of a 10 or 5 mM stock in DMSO was added to 436 µL Buffer (PBS, pH = 7.4), to give a final concentration of 100 or 50 µM. Samples were incubated on a shaker (500 rpm) at 37°C for 90 minutes and then filtered (Millex-GV 13 mm, 0.22 µm). 304 µL of the filtrate was mixed with 76 µL of acetonitrile on a dilution plate, from which 350 µL was transferred to a UV-plate and UV-absorption was read using a SpectraMax M5 (Molecular devices). The absorbance was blank-corrected and compared to the calibration curve to […]
solubility. The wavelengths used for the calibration curve are available in Table S4.
Based on the known density of 12.5 % CAPTISOL® solution (d = 1.05755 g/mL at 25 °C), the precise weight of the resulting solution and so the required amount of water by weight was calculated. The water was added portion wise with agitation, vortexing and sonication cycles in between additions. The saturated solutions were then filtered (Millex-GV 13 mm, 0.22 µm). In duplicates, aliquots of the filtrates were taken and diluted with blank 12.5 % CAPTISOL® water solution in either a 1:14 (higher sol. compounds) or 1:7 (lower sol. compounds) ratio, 350 µL was transferred to a 96-Well Plate (Greiner, UV-star) then UV absorption (240-400 nm, 10 nm steps) was measured using a SpectraMax M5 (Molecular devices). The absorption was blank-corrected, compared to the calibration curve obtained during the solubility measurement method above and finally corrected for the dilution ratio to obtain the compound concentration in the saturated 12.5 % CAPTISOL® solution. The calculated concentrations are available in Table S4.
BROMOscan™ assays (provided by Eurofins DiscoverX, US)1,2 […]
coli host derived from the BL21 strain. E. coli were grown to log-phase and infected with T7 phage from a frozen stock (multiplicity of infection = 0.4) and incubated with shaking at 32°C until lysis (90-150 minutes). The lysates were centrifuged (5,000 x g) and filtered (0.2µm) to remove cell debris. Streptavidin-coated magnetic beads were treated with biotinylated small molecule or acetylated peptide ligands for 30 minutes at room temperature to generate affinity resins for bromodomain assays. The liganded beads were blocked with excess biotin and washed with blocking buffer (SeaBlock (Pierce), 1 % BSA, 0.05 % Tween 20, 1 mM DTT) to remove unbound ligand and to reduce non specific phage binding. Binding reactions were assembled by combining bromodomains, liganded affinity beads, and test compounds (see […]
Sodium azide, 7.4 mM DTT). All reactions were performed in polypropylene 384-well plates in a final volume of 0.02 mL. The assay plates were incubated at room temperature with […]
20). The beads were then resuspended in elution buffer (1x PBS, 0.05% Tween 20, 2 µM non-

Caco-2 cells = assay: bidirectional Caco-2 permeability assay; assay type: in vitro ADME; settings: for Papp Replicate 1 / Papp Replicate 2: 120 min; for membrane permeability (Caco-2), in words: bidirectional Caco-2 assay
Experimental: (§1) Bidirectional Caco-2 Permeability Assay (provided by Cyprotex Discovery Ltd; Cheshire, UK)19 Following a standard Cyprotex procedure, Caco-2 cells (ATCC), used at passages 40–60, were seeded nt ranswe inserts at a densit f × ⁵ ce s/cm² and maintained in with media changes carried out every 2–3 days. Permeability assays were performed between days 18–22 post-seedin . pr cedures were c nducted at ° in a humidified incu at r with O₂. On the day of the assay, monolayers were prepared by rinsing both the apical and basolateral compartments with pre-warmed anks’ a anced a t uti n at the desired pH and incubated with HBSS on both sides for 30 minutes to equilibrate the compartments. The dosing solutions were obtained by diluting the test compounds in assay uffer t a c ncentrati n f with a fina O c ncentrati n f ≤ v/v and Lucifer yellow was included as a fluorescent marker to assess monolayer integrity. Analytical standards were prepared similarly, omitting the Lucifer yellow . For apical-to-basolateral (A– B) measurements, the dosing solution was applied to the apical chamber and buffer to the basolateral side, while the configuration was reversed for basolateral-to-apical (B–A) measurements. After a 120 min incubation, samples from both compartments were collected and diluted for quantification. Permeability was assessed in duplicates, and reference […]
(§2) compounds with known characteristics were included as controls. Quantification of test and control compounds was performed by LC-MS/MS using an 8-point calibration curve under Cyprotex standard analytical conditions. The initial concentration (C0) at time zero was determined from the dosing solution, and recovery was calculated based on concentrations […]
(§3) The apparent permeability coefficient (Papp) is calculated from the equation (where dQ/dt is the drug permeation rate across the cells, C0 is the concentration in the donor compartment at time zero, and A is the area of the cell monolayer):
(§4) Efflux ratio (ER) is calculated from mean A-B and B-A data: […]
(§5) Cells were fixed in situ with cold TCA: untreated cells at the time of compound addition (Tz) and treated cells 48 h after addition of compound (Ti). Cells were washed, then su f rh damine s uti n μ at . w/v in acetic acid was added to each well and incubated for 10 minutes at room temperature. After washing again, the plates were air dried and bound stain solubilized with 10 mM Trizma base before absorbance was […]
(§6) Percentage growth (%Growth) was calculated as follows:
(§7) when Ti ≥ Tz, %Growth = Ti − Tz x 100 where Ti = absorbance from compound treated cells, Tz = absorbance from untreated cells at time zero, and C = absorbance from control (DMSO) treated cells.
(§8) HEK293T, MRC5 and LP1 cells were cultured in DMEM (Gibco 41966 -029) containing 10 % or 15 % (LP1) FBS (Gibco 10270106 or Sigma F9665), 1 % non-essential amino acids (MRC5 only, […]
(§9) cultured in RPMI 1640 (Gibco 21875-034) containing 10 % FBS and 1 % P/S. All cells were grown in a humidified incubator with 5 % CO 2 at 37 °C.

[1] = bidirectional Caco-2 permeability assay; assay type: in vitro ADME; settings: human; for Papp A→B at 120 min / Papp B→A at 120 min / efflux ratio at 120 min: Caco-2; for Papp A→B at 120 min: Direction: A-B (apical-to-basolateral); for Papp A→B at 120 min / Papp B→A at 120 min: n=2; for Papp B→A at 120 min: Direction: B-A (basolateral-to-apical); for efflux ratio at 120 min: from mean A-B and B-A data, read-out: Efflux Ratio (Papp(B-A)/Papp(A-B))
Experimental: as §1, §2, §3, §4, §5, §6, §7, §8, §9

[2] = Direction: A-B (apical-to-basolateral)
[3] = Direction: B-A (basolateral-to-apical)
[4] = Caco-2, Direction: A-B (apical-to-basolateral)
[5] = Caco-2, Direction: B-A (basolateral-to-apical)

| solubility kinetic at 90 min (kinetic solubility) [µM] | Papp Replicate 1 (Caco-2 cells; [2]) | Papp Replicate 2 (Caco-2 cells; [2]) | Papp Replicate 1 (Caco-2 cells; [3]) | Papp Replicate 2 (Caco-2 cells; [3]) | membrane permeability (Caco-2), in words (Caco-2 cells) | recovery at 120 min [1, 4] [%] | recovery at 120 min [1, 5] [%] | Papp A→B at 120 min [1] [×10⁻⁶ cm/s] | Papp B→A at 120 min [1] [×10⁻⁶ cm/s] | efflux ratio at 120 min [1] | SMILES |
| --- | --- | --- | --- | --- | --- | --- | --- | --- | --- | --- | --- |
| 22.2 ± 1.3 (≈ 9.53 µg/mL) | 0.0348 10-6 cms-1 | 0.0401 10-6 cms-1 | 11.6 10-6 cms-1 | 11.5 10-6 cms-1 | very low membrane permeability | 80 | 87.3 | 0.0375 | 11.5 | 307 | CC(=O)Nc1cc(NC(=O)c2ccco2)cc(C(=O)Nc2cccc3nnc(C)cc23)c1 [Compound 1] |
| 69.7 ± 0.6 (≈ 31.8 µg/mL) | 0.57 10-6 cms-1 | 0.677 10-6 cms-1 | 34.2 10-6 cms-1 | 30.9 10-6 cms-1 | improved cellular permeability | 68.2 | 78 | 0.623 | 32.5 | 52.2 | Cc1cc2c(NC(=O)c3cc(NC(=O)[C@H]4CCCO4)cc(-c4ccn(C)n4)c3)cccc2nn1 [Compound 5] |

| SMILES | solubility kinetic at 90 min (kinetic solubility) [µM] | Papp Replicate 1 (Caco-2 cells; [2]) | Papp Replicate 2 (Caco-2 cells; [2]) | Papp Replicate 1 (Caco-2 cells; [3]) | Papp Replicate 2 (Caco-2 cells; [3]) | membrane permeability (Caco-2), in words (Caco-2 cells) | recovery at 120 min [1, 4] [%] | recovery at 120 min [1, 5] [%] | Papp A→B at 120 min [1] [×10⁻⁶ cm/s] | Papp B→A at 120 min [1] [×10⁻⁶ cm/s] | efflux ratio at 120 min [1] |
| --- | --- | --- | --- | --- | --- | --- | --- | --- | --- | --- | --- |
| Cc1cc2c(NC(=O)c3cc(NC(=O)c4ccco4)cc(-c4ccn(C)n4)c3)cccc2nn1 [Compound 2] | 3.2 ± 1.3 (≈ 1.45 µg/mL) | 0.565 10-6 cms-1 | 0.533 10-6 cms-1 | 28.9 10-6 cms-1 | 29.2 10-6 cms-1 | improved cellular permeability | 47 | 61.8 | 0.549 | 29 | 52.9 |
